Measurements published in ChEMBL document CHEMBL4402533 (Eur J Med Chem, 2019).

What was measured:
Homo sapiens [1] = species: Homo sapiens; assay: Selectivity ratio of Ki for human carbonic anhydrase 12 to Ki for human carbonic anhydrase 9
Homo sapiens [2] = species: Homo sapiens; assay: Selectivity ratio of Ki for human carbonic anhydrase 9 to Ki for human carbonic anhydrase 2
[3] = Chemical stability of the compound in presence of 10% FBS or human blood; type: physicochemical
[4] = Partition coefficient, log P of the compound; type: physicochemical; details: octanol/water
[5] = Chemical stability of the compound in pH 7.4 phosphate buffer assessed as drug decomposition in serum-free medium measured within 30 mins; type: physicochemical
[6] = Critical aggregation concentration of compound by dynamic light scattering; type: physicochemical
Mus musculus = assay: Antiinflammatory activity in C57BL/6 mouse assessed as reduction in LPS-induced inflammatory mortality by measuring mouse survival rate at 10 mg/kg, iv preincubated for 15 mins followed by LPS stimulation and measured at 24 hrs interval for 7 days relative to control; type: functional
HeLa = assay: Antiproliferative activity against human HeLa cells; type: functional, cell-based
Tyrosinase = target: T1, Tyrosinase (Agaricus bisporus, UniProt O42713); assay: Inhibition of mushroom tyrosinase preincubated for 10 mins followed by L-DOPA addition and measured for 1 mins by spectrophotometric assay
T1 sequence (O42713 whole entry): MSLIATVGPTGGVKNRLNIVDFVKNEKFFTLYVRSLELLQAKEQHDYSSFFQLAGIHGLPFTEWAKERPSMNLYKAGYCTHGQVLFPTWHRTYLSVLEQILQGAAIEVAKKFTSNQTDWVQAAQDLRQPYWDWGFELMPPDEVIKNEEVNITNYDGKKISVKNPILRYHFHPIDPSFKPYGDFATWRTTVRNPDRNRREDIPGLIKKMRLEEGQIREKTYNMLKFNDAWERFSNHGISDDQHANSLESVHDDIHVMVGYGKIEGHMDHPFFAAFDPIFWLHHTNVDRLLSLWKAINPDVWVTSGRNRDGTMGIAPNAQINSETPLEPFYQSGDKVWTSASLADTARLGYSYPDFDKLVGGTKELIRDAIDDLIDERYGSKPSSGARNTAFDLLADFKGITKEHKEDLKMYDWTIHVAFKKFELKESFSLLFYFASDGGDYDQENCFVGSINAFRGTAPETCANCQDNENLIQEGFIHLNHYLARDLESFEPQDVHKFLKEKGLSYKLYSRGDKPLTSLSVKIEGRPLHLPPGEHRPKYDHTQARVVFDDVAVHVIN

COc1ccc(OC)c(/C=C/C(=O)/C=C/c2ccc(S(N)(=O)=O)cc2)c1
Ratio Ki (Homo sapiens [1]): 9 | Ratio Ki (Homo sapiens [2]): 9

COc1cc(/C=C/C(=O)CC(=O)/C=C/c2ccc(O)c(OC)c2)ccc1O [CURCUMIN]
Stability [3]: < 50% | logP [4]: 2.3 to 2.6 | Drug degradation [5]: < 90% | CAC [6]: 17 µM

O=C(/C=C/c1ccccc1O)/C=C/c1ccccc1Br
Activity (Mus musculus): 60%

COc1ccc(/C=C/C(=O)/C=C/c2ccc(OCCN3CCCCC3)c(OC)c2)cc1OC
IC50 (HeLa): 0.7 µM

O=C1/C(=C/c2ccc(O)cc2)CC/C1=C\c1ccc(O)cc1O
IC50 (Tyrosinase): 1.74 µM

COc1ccc(/C=C/C(=O)/C=C/c2ccc(S(N)(=O)=O)cc2)cc1OC
Ratio Ki (Homo sapiens [1]): 70 | Ratio Ki (Homo sapiens [2]): 3
